Test results as given in the supplement of paper PMC11451515.

Test system: SEM cells
Assay: cell viability relative to DMSO control; higher = less cytotoxic
Settings: 48 h
Outline: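 Cells were incubated for 48 h at 37°C before CellTiter-Glo One luminescence was read. The cells were NOMO1 or SEM (500 cells/well) or P12-Ichikawa (1000 cells/well) leukemia cells, adapted for at least four passages in each medium and seeded in 1536-well plates (5 μl). Dosing used library compounds in DMSO applied by pin over 11 threefold points, 47 μM to 0.79 nM. Viability is the per-plate percentage of DMSO wells, with cell-free wells as background.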

[1] = RPMI 5 mM glucose + 10% FBS, 0.000781 µM
[2] = RPMI 5 mM glucose + 10% FBS, 0.00234 µM
[3] = RPMI 5 mM glucose + 10% FBS, 0.00702 µM
[4] = RPMI 5 mM glucose + 10% FBS, 0.0211 µM
[5] = RPMI 5 mM glucose + 10% FBS, 0.0632 µM
[6] = RPMI 5 mM glucose + 10% FBS, 0.19 µM
[7] = RPMI 5 mM glucose + 10% FBS, 0.569 µM
[8] = RPMI 5 mM glucose + 10% FBS, 1.71 µM
[9] = RPMI 5 mM glucose + 10% FBS, 5.12 µM
[10] = RPMI 5 mM glucose + 10% FBS, 15.4 µM
[11] = RPMI 5 mM glucose + 10% FBS, 46.1 µM
[12] = RPMI 5 mM glucose + 10% dialyzed FBS, 0.000781 µM
[13] = RPMI 5 mM glucose + 10% dialyzed FBS, 0.00234 µM
[14] = RPMI 5 mM glucose + 10% dialyzed FBS, 0.00702 µM
[15] = RPMI 5 mM glucose + 10% dialyzed FBS, 0.0211 µM
[16] = RPMI 5 mM glucose + 10% dialyzed FBS, 0.0632 µM
[17] = RPMI 5 mM glucose + 10% dialyzed FBS, 0.19 µM
[18] = RPMI 5 mM glucose + 10% dialyzed FBS, 0.569 µM
[19] = RPMI 5 mM glucose + 10% dialyzed FBS, 1.71 µM
[20] = RPMI 5 mM glucose + 10% dialyzed FBS, 5.12 µM
[21] = RPMI 5 mM glucose + 10% dialyzed FBS, 15.4 µM
[22] = RPMI 5 mM glucose + 10% dialyzed FBS, 46.1 µM
[23] = HPLM + 10% dialyzed FBS, 0.000781 µM
[24] = HPLM + 10% dialyzed FBS, 0.00234 µM
[25] = HPLM + 10% dialyzed FBS, 0.00702 µM
[26] = HPLM + 10% dialyzed FBS, 0.0211 µM
[27] = HPLM + 10% dialyzed FBS, 0.0632 µM
[28] = HPLM + 10% dialyzed FBS, 0.19 µM
[29] = HPLM + 10% dialyzed FBS, 0.569 µM
[30] = HPLM + 10% dialyzed FBS, 1.71 µM
[31] = HPLM + 10% dialyzed FBS, 5.12 µM
[32] = HPLM + 10% dialyzed FBS, 15.4 µM
[33] = HPLM + 10% dialyzed FBS, 46.1 µM

Row | SMILES | cell viability [1] [%] | cell viability [2] [%] | cell viability [3] [%] | cell viability [4] [%] | cell viability [5] [%] | cell viability [6] [%] | cell viability [7] [%] | cell viability [8] [%] | cell viability [9] [%] | cell viability [10] [%] | cell viability [11] [%] | cell viability [12] [%] | cell viability [13] [%] | cell viability [14] [%] | cell viability [15] [%] | cell viability [16] [%] | cell viability [17] [%] | cell viability [18] [%] | cell viability [19] [%] | cell viability [20] [%] | cell viability [21] [%] | cell viability [22] [%] | cell viability [23] [%] | cell viability [24] [%] | cell viability [25] [%] | cell viability [26] [%] | cell viability [27] [%] | cell viability [28] [%] | cell viability [29] [%] | cell viability [30] [%] | cell viability [31] [%] | cell viability [32] [%] | cell viability [33] [%]
1 | CC[P](CC)(CC)=[Au][S][C@@H]1O[C@H](COC(C)=O)[C@@H](OC(C)=O)[C@H](OC(C)=O)[C@H]1OC(C)=O | 106 | 120 | 117 | 122 | 115 | 108 | 89.8 | 5.13 | 4.94 | 3.95 | 3.2 | 111 | 106 | 93.8 | 108 | 106 | 113 | 103 | 5.2 | 5.93 | 4.45 | 2.9 |  |  |  |  |  |  |  |  |  |  | 
2 | Cc1nc(N)sc1-c1ccnc(Nc2ccc(N3CCOCC3)cc2)n1 | 78.7 | 111 | 124 | 106 | 130 | 107 | 94.9 | 87.1 | 19.1 | 14.2 | 18.1 | 81 | 95.6 | 114 | 118 | 112 | 102 | 81 | 73.7 | 22.4 | 18.4 | 17.2 | 88.8 | 98.7 | 102 | 102 | 107 | 107 | 85.5 | 83.8 | 30.5 | 26.2 | 31.3
3 | O=C(O)CCCc1ccc(N(CCCl)CCCl)cc1 | 95.7 | 91.8 | 126 | 122 | 114 | 126 | 121 | 119 | 124 | 101 | 20.2 | 97.4 | 113 | 120 | 111 | 128 | 129 | 133 | 122 | 137 | 113 | 36.8 | 96.5 | 108 | 112 | 119 | 120 | 129 | 125 | 136 | 120 | 102 | 55.5
4 | NC(=O)[C@@H](CCC(F)(F)F)N(Cc1ccc(-c2ncon2)cc1F)[S+](=O)([O-])c1ccc(Cl)cc1 | 114 | 108 | 104 | 114 | 114 | 92.9 | 83.8 | 81.9 | 84.3 | 30 | 2.87 | 84.4 | 98.6 | 98.2 | 98.7 | 86.3 | 88.6 | 95.8 | 79.5 | 70.9 | 52.3 | 2.93 | 96.6 | 106 | 102 | 106 | 103 | 98.8 | 81.4 | 90.9 | 91.5 | 72.2 | 4.51
5 | O=C(Nc1ccncc1)C(=O)c1cn(Cc2ccc(Cl)cc2)c2ccccc12 | 130 | 105 | 122 | 114 | 57.7 | 33 | 17.8 | 18.2 | 18.7 | 22.2 | 28 | 107 | 88.4 | 95.3 | 75.9 | 58.5 | 27.7 | 23.9 | 20.9 | 26.6 | 25.3 | 30.5 | 92.5 | 94 | 91.7 | 81.9 | 54.8 | 31.5 | 29.4 | 24.7 | 25.7 | 28.5 | 26.3
6 | CC/C(=C(\c1ccccc1)c1ccc(OCCN(C)C)cc1)c1ccccc1 | 98.1 | 99.7 | 95.8 | 93.8 | 66.7 | 95 | 99.2 | 99.9 | 90.5 | 91.6 | 12.5 | 87.4 | 87.2 | 102 | 95.2 | 81.7 | 115 | 99.4 | 96.3 | 95.2 | 93.9 | 13 | 80.9 | 97.6 | 107 | 103 | 74.6 | 102 | 94 | 108 | 96.3 | 86.2 | 16.8
7 | Clc1ccc(C(Cn2ccnc2)OCc2ccsc2Cl)c(Cl)c1 (stereo not drawn) | 76.4 | 95.1 | 114 | 105 | 132 | 121 | 100 | 122 | 110 | 112 | 65.6 | 69.3 | 110 | 110 | 117 | 128 | 124 | 101 | 109 | 118 | 105 | 55.9 | 67.6 | 98.8 | 107 | 93.1 | 114 | 110 | 90.4 | 111 | 111 | 114 | 35.7
8 | CC(=O)OCC(CCn1cnc2cnc(N)nc21)COC(C)=O | 85.9 | 71.3 | 69.2 | 97.5 | 88.1 | 98.3 | 98.2 | 103 | 97.4 | 103 | 109 | 79.3 | 79.8 | 74.9 | 81.2 | 96 | 95.5 | 103 | 97 | 110 | 97.9 | 95.6 | 83.4 | 65.5 | 93.6 | 84.8 | 97.3 | 101 | 105 | 101 | 97.7 | 109 | 90.8
